Patent publication US9051342B2 (priority 2004, dated 2015)
Values joined by “and” are separate entries in the source; they are usually repeats but may differ in a detail not shown here. Identical values can stand only once.

melting point | Compound
255 to 257 °C | O=C(O)c1ccc(-c2cnn(-c3cccc(OC(F)F)c3)c2)cc1 [Compound 173]
264 to 265 °C | O=C(O)c1cccc(-n2cc(-c3ccc4c(c3)OCO4)cn2)c1 [Compound 111, 3-(4-Benzo[1,3]dioxol-5-yl-pyrazol-1-yl)-benzoic acid]
110 to 112 °C | COc1ccc(-n2ccc(-c3cccc(C#N)c3)n2)cc1 [Compound 58, 3-[1-(4-Methoxy-phenyl)-1H-pyrazol-3-yl]-benzonitrile]
280 to 281 °C | O=C(O)c1cccc(-c2ccn(-c3ccc([N+](=O)[O-])cc3)n2)c1 [Compound 168, 3-[1-(4-Nitro-phenyl)-1H-pyrazol-3-yl]-benzoic acid]
225 to 227 °C and 223 to 225 °C | COc1ccc(-n2cc(-c3cccc(C(=O)O)c3)cn2)cc1 [Compound 97]
313 to 314 °C | O=C(O)c1ccc(-n2cc(-c3ccc(Cl)cc3)nn2)cc1 [Compound 269, 4-[4-(4-Chloro-phenyl)-[1,2,3]triazol-1-yl]-benzoic acid]
249 to 250 °C | COc1ccc(-n2cc(-c3cc(C(=O)O)ccc3[N+](=O)[O-])cn2)cc1 [Compound 55, 3-[1-(4-Methoxy-phenyl)-1H-pyrazol-4-yl]-4-nitro-benzoic acid]
278 to 280 °C | CCc1ccc(-n2ccc(-c3ccc(C(=O)O)cc3)c2)cc1 [Compound 129, 4-[1-(4-Ethyl-phenyl)-1H-pyrrol-3-yl]-benzoic acid]
231 to 233 °C | O=C(O)c1ccc(-c2ccn(-c3ccc(F)c(F)c3)c2)cc1 [Compound 127, 4-[1-(3,4-Difluoro-phenyl)-1H-pyrrol-3-yl]-benzoic acid]
225 to 227 °C | COc1ccc2c(c1)-c1nn(-c3cccc(C(=O)O)c3)cc1C2 [Compound 140, 3-(7-Methoxy-4H-indeno[1,2-c]pyrazol-2-yl)-benzoic acid]
177 to 178 °C | O=C(O)c1cccc(-n2cc(-c3cccc(Br)c3)cn2)c1 [Compound 88, 3-[4-(3-Bromo-phenyl)-pyrazol-1-yl]-benzoic acid]
179 to 181 °C | O=C(O)c1cccc(-c2cnn(-c3cccc(OC(F)F)c3)c2)c1 [Compound 172]
213 to 215 °C | O=C(O)c1cccc(-c2cnn(-c3ccc(OC(F)(F)F)cc3)c2)c1 [Compound 133, 3-[1-(4-Trifluoromethoxy-phenyl)-1H-pyrazol-4-yl]-benzoic acid]
235 to 236 °C | O=C(O)c1cccc(-c2ccn(-c3cccnc3)n2)c1 [Compound 260, 3-(1-Pyridin-3-yl-1H-pyrazol-3-yl)-benzoic acid]
100 to 101 °C | COc1cccc(-n2ccc(-c3cccc(C#N)c3)n2)c1 [Compound 59, 3-[1-(3-Methoxy-phenyl)-1H-pyrazol-3-yl]-benzonitrile]
143 to 145 °C | COC(=O)c1cccc(-n2ccc(-c3cccc(C#N)c3)n2)c1 [Compound 64, 3-[3-(3-Cyano-phenyl)-pyrazol-1-yl]-benzoic acid methyl ester]
252 to 254 °C | CC(C)c1ccc(-c2nn(-c3ccc(C(=O)O)cc3)c(=O)o2)cc1 [Compound 277, 4-[5-(4-Isopropyl-phenyl)-2-oxo-[1,3,4]oxadiazol-3-yl]-benzoic acid]
280 to 282 °C | Cc1ccc(-n2cc(-c3ccc(C(=O)O)cc3)cn2)cc1 [Compound 178, 4-(1-p-Tolyl-1H-pyrazol-4-yl)-benzoic acid]
239 to 241 °C | O=C(O)c1cccc(-c2ncn(-c3ccccc3F)n2)c1 [Compound 17, 3-[1-(2-Fluoro-phenyl)-1H-[1,2,4]triazol-3-yl]-benzoic acid]
259 to 261 °C | O=C(O)c1ccc(-c2cnn(-c3ccc(Cl)cc3)c2)cc1 [Compound 234, 4-[1-(4-Chloro-phenyl)-1H-pyrazol-4-yl]-benzoic acid]
265 to 266 °C | O=C(O)c1ccc(-n2cc(-c3cccc4ccccc34)nn2)cc1 [Compound 271, 4-(4-Naphthalen-1-yl-[1,2,3]triazol-1-yl)-benzoic acid]
220 to 222 °C | O=C(O)c1ccc(-n2cc(-c3cccc(OC(F)F)c3)cn2)cc1 [Compound 214]
153 to 154 °C | COc1cccc(-n2ccc(-c3cccc(C(=O)O)c3)n2)c1 [Compound 77, 3-[1-(3-Methoxy-phenyl)-1H-pyrazol-3-yl]-benzoic acid]
261 to 265 °C | O=C(O)c1ccc(-n2cc(-c3cccc(F)c3)cn2)cc1 [Compound 212, 4-[4-(3-Fluoro-phenyl)-pyrazol-1-yl]-benzoic acid]
290 to 291 °C and 290 to 292 °C | O=C(O)c1cccc(-c2ncn(-c3ccc(F)cc3F)n2)c1 [Compound 16, 3-[1-(2,4-Difluoro-phenyl)-1H-[1,2,4]triazol-3-yl]-benzoic acid]
252 to 255 °C | O=C(O)c1ccc(-n2cc(-c3cccc(Cl)c3)cn2)cc1 [Compound 211, 4-[4-(3-Chloro-phenyl)-pyrazol-1-yl]-benzoic acid]

melting point | Compound
257 to 259 °C | O=C(O)c1cccc(-c2ncn(-c3ccccc3)n2)c1 [Compound 37, 3-(1-Phenyl-1H-[1,2,4]triazol-3-yl)-benzoic acid]
292 to 294 °C | O=C(O)c1ccc(-n2cc(-c3ccccc3F)nn2)cc1 [Compound 264, 4-[4-(2-Fluoro-phenyl)-[1,2,3]triazol-1-yl]-benzoic acid]
201 to 203 °C | O=C(O)c1cccc(-c2cnn(-c3ccc4c(c3)OCCO4)c2)c1 [Compound 225, 3-[1-(2,3-Dihydro-benzo[1,4]dioxin-6-yl)-1H-pyrazol-4-yl]-benzoic acid]
271 to 273 °C | O=C(O)c1ccc(-c2cnn(-c3ccc(C(F)(F)F)cc3)c2)cc1 [Compound 236, 4-[1-(4-Trifluoromethyl-phenyl)-1H-pyrazol-4-yl]-benzoic acid]
286 to 288 °C | O=C(O)c1ccc(-n2cc(-c3ccc4c(c3)OCO4)cn2)cc1 [Compound 205, 4-(4-Benzo[1,3]dioxol-5-yl-pyrazol-1-yl)-benzoic acid]
264 to 268 °C | Cc1ccc(-n2ccc(-c3ccc(C(=O)O)cc3)c2)cc1F [Compound 244, 4-[1-(3-Fluoro-4-methyl-phenyl)-1H-pyrrol-3-yl]-benzoic acid]
210 to 212 °C | O=C(O)c1cccc(-c2ccn(-c3ccc(OCc4ccccc4)cc3)n2)c1 [Compound 176, 3-[1-(4-Benzyloxy-phenyl)-1H-pyrazol-3-yl]-benzoic acid]
166 to 168 °C | O=C(O)c1cccc(-n2cc(-c3cccc(OC(F)(F)F)c3)cn2)c1 [Compound 209, 3-[4-(3-Trifluoromethoxy-phenyl)-pyrazol-1-yl]-benzoic acid]
200 to 202 °C | O=C(O)c1ccc(-c2ccn(-c3ccccc3Cl)c2)cc1 [Compound 197, 4-[1-(2-Chloro-phenyl)-1H-pyrrol-3-yl]-benzoic acid]
311 to 312 °C | CC(C)c1ccc(-c2cn(-c3ccc(C(=O)O)cc3)nn2)cc1 [Compound 275, 4-[4-(4-Isopropyl-phenyl)-[1,2,3]triazol-1-yl]-benzoic acid]
223 to 225 °C | Cc1cccc(-n2cnc(-c3cccc(C(=O)O)c3)n2)c1 [Compound 39, 3-(1-m-Tolyl-1H-[1,2,4]triazol-3-yl)-benzoic acid]
270 to 271 °C | O=C(O)c1ccc([N+](=O)[O-])c(-c2cnn(-c3ccc(Cl)cc3)c2)c1 [Compound 56, 3-[1-(4-Chloro-phenyl)-1H-pyrazol-4-yl]-4-nitro-benzoic acid]
200 to 202 °C | O=C(O)c1ccc(-c2ccn(-c3cccs3)n2)cc1 [Compound 259, 4-(1-Thiophen-2-yl-1H-pyrazol-3-yl)-benzoic acid]
230 to 235 °C | O=C(O)c1cccc(-n2ccc(-c3ccc(Cl)cc3)n2)c1 [Compound 80, 3-[3-(4-Chloro-phenyl)-pyrazol-1-yl]-benzoic acid]
280 to 282 °C | O=C(O)c1ccc(-c2ccn(-c3cccnc3)n2)cc1 [Compound 261, 4-(1-Pyridin-3-yl-1H-pyrazol-3-yl)-benzoic acid]
273 to 275 °C | O=C(O)c1ccc(-n2cc(-c3cccc(O)c3)cn2)cc1 [Compound 206, 4-[4-(3-Hydroxy-phenyl)-pyrazol-1-yl]-benzoic acid]
253 to 254 °C | O=C(O)c1cccc(-n2cc(-c3ccc(Cl)cc3)cn2)c1 [Compound 49, 3-[4-(4-Chloro-phenyl)-pyrazol-1-yl]-benzoic acid]
269 to 271 °C | COc1ccc2c(c1)-c1cnn(-c3cccc(C(=O)O)c3)c1CC2 [Compound 254, 3-(8-Methoxy-4,5-dihydro-benzo[e]indazol-3-yl)-benzoic acid]
215 to 216 °C | CC(=O)c1ccc(-n2ccc(-c3cccc(C(=O)O)c3)n2)cc1 [Compound 255, 3-[1-(4-Acetyl-phenyl)-1H-pyrazol-3-yl]-benzoic acid]
200 to 202 °C | COc1ccccc1-n1ccc(-c2ccc(C(=O)O)cc2)c1 [Compound 193]
289 to 290 °C | COc1ccc(-c2cnn(-c3ccc(C(=O)O)cc3)c2)cc1 [Compound 50, 4-[4-(4-Methoxy-phenyl)-pyrazol-1-yl]-benzoic acid]
210 to 211 °C | COc1ccc(-c2ccn(-c3cccc(C(=O)O)c3)n2)cc1 [Compound 81, 3-[3-(4-Methoxy-phenyl)-pyrazol-1-yl]-benzoic acid]
241 to 244 °C | O=C(O)c1cccc(-c2ncn(-c3ccccn3)n2)c1 [Compound 36, 3-(1-Pyridin-2-yl-1H-[1,2,4]triazol-3-yl)-benzoic acid]
277 to 278 °C | O=C(O)c1ccc(-n2cc3c(n2)-c2cccc(OC(F)F)c2C3)cc1 [Compound 188, 4-(5-Difluoromethoxy-4H-indeno[1,2-c]pyrazol-2-yl)-benzoic acid]
281 to 282 °C | O=C(O)c1ccc(-c2ccn(-c3ccc4[nH]ccc4c3)n2)cc1 [Compound 257, 4-[1-(1H-Indol-5-yl)-1H-pyrazol-3-yl]-benzoic acid]
